Assay results published in a melting point compilation (Tetko et al.; mined from patent text by program, amines drawn as free bases though some values may be those of a salt).

| Compound | melting point [°C] |
| --- | --- |
| O=C1c2cc3c(cc2CCC1NC(=O)C(F)(F)F)CCO3 (centres undefined) | 208 |
| COC(=O)C1=C(C)Nc2ccccc2SC1c1ccccc1 (centres undefined) | 154 to 156 |
| CC(C)(C)c1ccc(OP2OCC3(CO2)COP(Oc2ccc(C(C)(C)C)cc2C(C)(C)C)OC3)c(C(C)(C)C)c1 (centres undefined) | 174 to 177 |
| CN(C(=O)COc1nc(C(Cl)(Cl)Cl)ns1)C1=CCCCC1 | 78 |
| CCCC(=O)OC(C)OC(=O)NC1(C(=O)O)CC1 (centres undefined) | 90.4 to 93.4 |
| COC1(c2cc(F)cc(OCc3ccc4ccccc4c3)c2)CCOCC1 | 109 to 111 |
| CC(=O)N1CC(C)(C)CN=C1N(N=CC(C=Cc1ccc(C(F)(F)F)cc1)=Cc1ccc(C(F)(F)F)cc1)C(C)=O | 70 to 72 |
| COC(=O)CC(NC(=O)C(CSC(C)=O)Cc1ccccc1)c1ccc2ccccc2c1 (centres undefined) | 133 to 135 |
| CC(=O)Nc1nc(C(Cl)(Cl)Cl)ns1 | 193 |
| O=C(O)C(NS(=O)(=O)c1ccc(Cl)cc1)C1CCCCC1 (centres undefined) | 120 to 128 |
| CC1(CN=[N+]=[N-])SC2C(NC(=O)Cc3ccccc3)C(=O)N2C1C(=O)OCC(Cl)(Cl)Cl (centres undefined) | 105 to 106 |
| CCCCCCCCCCC(O)C1CCC(C2CCC(C(O)CCCCCCCCCCC3CC(CC(C)=O)C(=O)O3)O2)O1 (centres undefined) | 90.5 to 90.7 |
| O=C(Nc1ccc(C(=O)N2Cc3cccn3Cc3ccccc32)cc1)c1ccccc1C(F)(F)F | 226 to 228 |
| CN(C)C(=S)Oc1ccc(C(=O)c2ccc([N+](=O)[O-])cc2)cc1 | 168 |
| CCOC(=O)N1CCN(C2c3ccccc3C=Cc3ccccc32)CC1 | 159 to 160 |
| COc1cc(OCC(=O)N(C)C)c(/C=C/C(=O)c2ccc(C(=O)O)cc2)cc1-c1cccs1 | 197 to 198 |
| Cc1cc(C(O)(C(F)(F)F)C(F)(F)F)cc(C)c1OCC(=O)O | 118 to 120 |

| Compound | melting point [°C] |
| --- | --- |
| CN(C(=O)On1ccnn1)c1ccccc1 | 105 to 106 |
| CC(C)C(=O)C1(S(=O)(=O)c2ccc(O)cc2)CC1 | 111 to 112 |
| CCOc1nc(C)nc(N)n1 | 172 to 174 |
| NC(=O)C1CCn2c(cc3ccccc32)C1 (centres undefined) | 165 to 168 |
| CCCCCCCCCCc1c(C(=O)OCC)sc2c1sc1c3sc(C(=O)OCC)c(CCCCCCCCCC)c3sc21 | 130 to 132 |
| CCOC(=O)c1cnc2c(c1O)CCCCCCCC2 | 212 to 230 |
| Nc1ccc(NC(=O)CCCCC2CCSS2)cc1 (centres undefined) | 55 to 60 |
| O=C(Nc1ccc(S(=O)(=O)c2ccccc2)cc1)N[C@@H](Cc1ccc(NC(=O)c2c(Cl)cccc2Cl)cc1)C(=O)O | 222 |
| N=C(c1ccccc1)C1CCN1C(c1ccccc1)c1ccccc1 (centres undefined) | 124 to 126 |
| CCOc1ccc(C(=O)Nc2ccccc2)cc1[N+](=O)[O-] | 189 to 190 |
| CCOC(=O)C1=C(C)NC(C(Nc2ccccc2C(=O)O)SCc2ccccc2)=C(C(=O)OCC)C1c1cccc([N+](=O)[O-])c1 (centres undefined) | 105 to 107 |
| O=C1NC(=S)C(c2c[nH]c3ccccc23)=C1c1c[nH]c2ccccc12 | 254 to 257 |
| Cc1cc(NC(=O)OC(C)(C)C)c([N+](=O)[O-])cc1I | 99 to 100 |
| CC12CCC(C1)C1(C)Oc3ccc(C(=O)/C=C/c4ccc(C(=O)O)cc4)cc3C21C (centres undefined) | 225 to 227 |
| CN1CCC(OC2c3ccccc3CCn3cc(-c4ccc(NC(=O)C(C)(C)C)cc4)nc32)CC1 (centres undefined) | 120 |
| c1ccc2c(c1)c1ccccc1n2-c1ccc(-n2ccnc2-c2nccn2-c2ccc(-n3c4ccccc4c4ccccc43)cc2)cc1 | 270 to 274 |
| Cc1ccc(C#N)c(NC(C)C)c1 | 55 to 57 |

Second part, the compound after the results:

| melting point [°C] | Compound |
| --- | --- |
| 110 to 112 | CCCC(=O)c1cnc2cc(COC(=O)c3ccccc3)ccc2c1Nc1ccccc1C |
| 228 to 229 | CCCCc1ncc(/C=C(\C)C(=O)O)n1Cc1ccccc1Cl |
| 154 to 156 | Cn1cc(C(=O)NCc2ccc(Cl)cc2)c(=O)c2cc(COCC[C@@H](O)c3ccccc3)sc21 |
| 116 to 118 | C#C[C@@]1(O)[C@@H](COC(=O)c2ccc(Cl)cc2)OC(O)[C@@H]1O (some centres undefined) |
| > 119 | CCCCc1nn(-c2cc(NC(=O)OCCC)ccc2Cl)c(=O)n1Cc1ccc(-c2ccccc2S(=O)(=O)NC(=O)c2ccccc2Cl)cc1 |
| 135 | O=c1sc(CO)c(C(F)(F)F)n1-c1ccccc1 |
| 128 to 129 | Nc1ncc(C#Cc2ccccc2)c(NCCOCCO)n1 |
| 170 | CS(=O)(=O)C(=C1CN(C(c2ccccc2)c2ccccc2)C1)c1ccc(Cl)c(Cl)c1 |
| 97 | CCSC1=C(C#N)C(c2ccccc2)(c2ccccc2)C(=O)N1CCCBr |
| 105 to 108 | CCCN(C)c1nn(C)c(=O)c2c1ccn2-c1c(C)cc(C)cc1C |
| 134 to 136 | Cc1cc(Cl)nn2cnnc12 |
| 215 to 216 | O=C(OCc1nc(/C=C/c2cn(-c3ccccc3)nc2O)cs1)c1ccccc1 |
| 173 to 175 | O=C(c1ccc(Cl)cc1)c1c(N2C(=O)c3ccccc3C2=O)sc(Br)c1CBr |
| 140 to 141 | COc1ccc(C2CCc3cc(CC(=O)O)cc(Cl)c3N2)cc1 (centres undefined) |
| 163 to 167 | CCCCNC(=O)NS(=O)(=O)c1cccc(C(=O)OC)c1I |
| 215 to 217 | NC(=O)CCn1c(=S)sc2ccc(Cl)cc21 |
| 154 to 159 | O=C(O)C[C@H](C(=O)N[C@H](CO)Cc1ccccc1)n1cc(-c2ccc(-c3ccccc3)cc2)cn1 |
| 106 to 108 | CCc1nn(CCO)c(CO)c1Sc1cc(Cl)cc(Cl)c1 |

| melting point [°C] | Compound |
| --- | --- |
| 65 to 67 | CCCCN(CCCC)S(=O)(=O)c1ccc(C(CC2CCCC2)C(=O)Nc2nc3ccc(OC)nc3s2)cc1 (centres undefined) |
| 134 to 136 | CC(=O)SCCC(=O)N1c2ccc(Cl)cc2CCC1C(=O)O (centres undefined) |
| 186 to 187 | COC(=O)c1ccc(-c2nc(-c3ccc(Cl)cc3)cs2)cc1 |
| 46.1 to 48.9 | CN1c2ccccc2CC1COc1ccc(CC2SC(=O)NC2=O)cc1 (centres undefined) |
| 88 to 89 | CCCCOC(=O)N1C(=O)[C@H](O)[C@@H]1c1ccccc1 |
| 155 to 156 | CC(C)c1ccc(-c2cncc(-c3cccc(C(=O)O)c3)c2)cc1 |
| 120 to 121 | CCCc1nn(-c2ccc(C(F)(F)F)cn2)cc1CO |
| 89 | CCC(C)N(C)C(=O)c1cc(-c2ccccc2F)c2sccc2c1 (centres undefined) |
| 142 to 144 | Cc1c(NC(=O)c2ccc(OC[C@@H]3CCCO3)cc2)ccc2cc(CNC3CCC3)cnc12 |
| 145 to 150 | O=C(Nc1ccc(CN2CCCCC2)cc1)C(Br)C(Br)c1ccc(-c2ccc(Cl)cc2)cc1 (centres undefined) |
| 194 | O=C(NN1CCCCC1)c1nn(-c2ccc(Cl)cc2Cl)c(-c2ccc(Cl)cc2)c1COCCO |
| 160 to 161 | Clc1cc(CCc2ccccn2)c2oc(-c3cnccn3)nc2c1 |
| 110 to 111 | Nc1ccc(SCc2nc(Cl)ccc2Cl)cc1 |
| 113 to 114 | CCOC(=O)CCCCCc1oc(=O)[nH]c1-c1ccc(Cl)cc1 |
| 200 to 202 | CCOCOc1cccc(C(CC#N)N2Cc3c(Cl)ccc(NC(=O)C4CC4)c3C2=O)c1 (centres undefined) |
| 184 to 187 | CCOC(=O)c1cn2c(cnc3ccccc32)n1 |
| 229 to 230 | CCCOc1cccc2c1C(N)=NS(=O)(=O)N2 |
